Test results reported in patent US9040035B2, “Treatment of pain using placental stem cells” (ANTHROGENESIS CORPORATION, priority 2011, dated 2015).

Assays:
[1] = system: Sciatic nerve chronic constriction injury; test: Sciatic nerve chronic constriction injury (CCI) in rats, tactile allodynia test; assay type: in vivo, rat; conditions: 100 mg/ml, 0.25 ml IP; days 10, 16, 25 and 30
Source text: (§1) Seventy seven male Sprague Dawley rats, 3 months old, approximately 200-250 g at study initiation were included in the study. Minimum and maximum weights of the group were within a range of ±20% of group mean weight. Following several days of habituation the rats underwent baseline measurements for pain behavior (tactile-allodynia) and motor sensory assessment (rotarod test). All the rats underwent Sciatic nerve chronic constriction injury (CCI); pain development was verified on the 6th day following the operation and sensory motor behavior on the 7th. On the 8th day following the procedure the rats were assigned randomly to the various treatment groups (Table 5). Pain levels were assessed on the 6th, 10th, 16th, 25th and 30th days following the procedure. Motor sensory coordination was assessed on the 11th, 21st, 26th and 34th days. […]
Pain level was evaluated using a Tactile allodynia test. In this test, the withdrawal response to calibrated Von Frey fibers is measured. […] Each fiber was applied to the paw five times and a percentage score of responses was calculated (see Flatters et al., Pain, 2004, 109:150-161). […]
(§2) Data were tabulated and analyzed using StatView software version 5.0 (SAS Institute Inc., San Francisco, Calif., USA). […] Behavioral statistics were calculated only for rats with data at all time points. […]

[2] = system: motor sensory coordination; test: Sciatic nerve chronic constriction injury (CCI) in rats, Rotarod test; assay type: in vivo, rat; conditions: 100 mg/ml, 0.25 ml IP
Source text: as §1, with “days. On the 35th day the rats were euthanized, the sciatic nerves (both sides) were collected and embedded in paraffin.” for “days.”
Motor sensory coordination was evaluated with the Rotarod Test. […] The rodent's ability to remain on the rotating rod is recorded (time in seconds). […]
as §2

## NCC1(CC(=O)O)CCCCC1 [gabapentin]
[1]
  pain (responses to 26 g stimuli) compared to day 6: significantly reduced the pain
[2]
  time spent on the rotarod (motor sensory coordination): significant reduction in the time spent on the rotarod
